The values below are quoted from earlier work in patent publication US11472782B2, “RIP1 inhibitory compounds and methods for making and using the same” (priority 2018, dated 2022).

The structures appear in SMILES notation.

In the data set the test system is TNF-alpha induced hypothermia. The following applies: mouse, dose of 30 mg/kg, according to WO 2014/125444.

Turning to `CN1C(=O)[C@@H](NC(=O)c2nnc(Cc3ccccc3)[nH]2)COc2ccccc21` [comparative compound, (S)-5-benzyl-N-(5-methyl-4-oxo-2,3,4,5-tetrahydrobenzo[b][1,4]oxazepin-3-yl)-4H-1,2,4-triazole-3-carboxamide], the “inhibition of TNF-alpha induced hypothermia” value was 93%.
